Experiments:
CRMP4a-RhoA binding = biological target: T1, CRMP4a-RhoA binding (Homo sapiens, UniProt P61586); assay: CRMP-RhoA co-immunoprecipitation, CRMP4a binding to RhoA in co-transfected HEK293T cells; format: cell-based, rat; conditions: co-transfection with myc-RhoAWT and CRMP4-V5, myc-immunoprecipitation, FIG. 7c
T1 construct: expressed in transfected cells; host or cells: HEK293T
Procedure: (§1) HEK 293T cells were grown to sub-confluence and transfected with Lipofectamine 2000 according to manufacturer instructions (Invitrogen, Burlington, Ontario), washed twice with ice-cold PBS and lysed in lysis buffer A (50 mM Tris, pH 7.4, 150 mM NaCl, 1 mM EDTA, 1% (v/v) Triton X-100, 1 mM Na3VO4, 1 mM NaF, 1 mM PMSF and CØmplete protease inhibitors (Roche Diagnostics, Laval, PQ)). Lysates were pre-cleared with protein A/G-agarose (Santa Cruz Biotechnology, Santa Cruz, Calif.) and subjected to immunoprecipitation with myc-agarose or V5-agarose (Sigma Chemical Co., Oakville, Ontario). After washing 3 times with ice-cold PBS, bound protein was eluted with SDS and immunoblotted with anti-Myc (9E10, 1:1000; Sigma Chemical Co., Oakville, Ontario) or anti-V5 (1:5000; Invitrogen, Burlington, Ontario). For time course experiments, PC12 cells were transfected for 24 hours using Lipofectamine 2000 (Invitrogen, Burlington, Ontario) and differentiated with 50 ng/ml nerve growth factor (NGF; Upstate Biotechnology, Waltham, Mass.) for 24 hours. Cells were treated with Nogo-P4 peptide for the indicated period of time at 37° C. Cells were then lysed and proteins were immunoprecipitated as described above.

E8 chick DRG neurons = assay: Sema3A-dependent growth cone collapse assay; format: cell-based; conditions: HSV-infected, stimulated 20 min with AP-Sema3A ligand, FIG. 8f
Procedure: […] Sema3A-AP or AP conditioned media was prepared as described previously (Takahashi et al., 1998). Explants were stimulated with Sema3A-AP- or AP-conditioned media at indicated concentrations for 20 min and fixed with 4% paraformaldehyde, 20% sucrose and 0.1M NaPO4. Explants were stained with rhodamine phalloidin and assessed for growth cone collapse as described (Luo et al., 1993).

[1] = system: dissociated E13 chick DRG neurons; assay: Neurite outgrowth assay on myelin substrate, HSV-infected neurons; format: cell-based; conditions: introduced via recombinant HSV, compared to GFP- or full length CRMP4b-infected neurons, FIG. 8b, d
Procedure: (§2) For neurite outgrowth assays, myelin was dried down on poly-L-lysine-coated substrates. Substrates were washed and coated with 10 μg/ml laminin for 1 hr. For outgrowth on aggrecan, poly-L-lysine-coated substrates were coated with aggrecan and 10 μg/ml laminin for 2 hr at 37° C. Dissociated E13 chick DRG neurons were cultured in DRG media (F-12 medium. 10% FBS, 1% penicillin/streptomycin, 1% L-glutamine, 50 ng/ml NGF) in the presence of virus for 24 hours, fixed with 4% paraformaldehyde/20% sucrose in PBS and double stained with anti-βIII tubulin (Covance, Berkeley, Calif.) and anti-V5 antibody (Sigma Chemical Co. Oakville, Ontario). Neurite outgrowth lengths per cell were assessed using Image J, a public domain JAVA image processing program as previously described (Fournier et al., 2003).

[2] = biological target: T2, binding between FLAG-RhoA63L and myc-ROCK (Homo sapiens, UniProt P61586, Q63L); assay: Co-immunoprecipitation of FLAG-RhoA63L and myc-ROCK in co-transfected HEK293T cells; format: cell-based; conditions: FIG. 7d
T2 construct: expressed in transfected cells; host or cells: HEK293T
T2 sequence (P61586 1-190 Q63L limits assumed): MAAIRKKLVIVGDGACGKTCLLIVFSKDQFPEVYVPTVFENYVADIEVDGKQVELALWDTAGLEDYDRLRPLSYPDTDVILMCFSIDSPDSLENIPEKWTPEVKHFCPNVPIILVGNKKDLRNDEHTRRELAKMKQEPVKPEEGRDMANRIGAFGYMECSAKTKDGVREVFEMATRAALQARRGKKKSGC
Procedure: as §1

CRMP4b-RhoA binding = biological target: T3, CRMP4b-RhoA binding (Homo sapiens, UniProt P61586); assay: CRMP-RhoA co-immunoprecipitation, full length CRMP4b binding to RhoA in co-transfected HEK293T cells; format: cell-based, rat; conditions: co-transfection with myc-RhoAWT and CRMP4-V5, myc-immunoprecipitation, FIG. 7c
T3 construct: expressed in transfected cells; host or cells: HEK293T
T3 sequence (P61586 1-190 limits assumed): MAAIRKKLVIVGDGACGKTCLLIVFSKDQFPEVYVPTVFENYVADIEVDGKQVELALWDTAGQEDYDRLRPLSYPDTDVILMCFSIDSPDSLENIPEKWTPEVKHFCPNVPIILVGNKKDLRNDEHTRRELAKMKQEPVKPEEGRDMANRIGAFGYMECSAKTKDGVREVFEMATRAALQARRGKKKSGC
Procedure: as §1

[3] = system: dissociated E13 chick DRG neurons; assay: Neurite outgrowth assay on laminin (control) substrate, HSV-infected neurons; format: cell-based; conditions: introduced via recombinant HSV, normalized to GFP-infected neurons, FIG. 8b, c
Procedure: as §2

[4] = system: dissociated E13 chick DRG neurons; assay: Neurite outgrowth assay on aggrecan substrate, HSV-infected neurons; format: cell-based; conditions: introduced via recombinant HSV, FIG. 8e
Procedure: as §2

E13 chick DRG neurons = assay: Filopodia and neurite branch analysis of HSV-infected DRG growth cones; format: cell-based; conditions: overexpression by HSV infection
Procedure: E7-13 chick DRG explants were cultured in DRG media on poly-L-lysine- and laminin-coated substrates for 18 hours. For viral infections, recombinant viral preparations were added to the media 1 hour after plating. After 18 hours, cultures were treated with myelin and fixed with 4% paraformaldehyde/20% sucrose/PBS, permeabilized in 0.2% triton X-100 and double stained with polyclonal anti-RhoA antibody (Santa Cruz Biotechnology, Santa Cruz, Calif.) and anti-CRMP4b or V5 antibody. For filopodia and branch analysis, GFP and CRMP4bV5-infected growth cones were double stained with rhodamine-phalloidin (Molecular Probes, Eugene, Oreg.) and anti-V5 antibody. Filopodial length per growth cone was assessed using Image J, by measuring total filopodial length per growth cone averaged by the total number of filopodia per growth cone. Neurite branches were quantified by counting total branch buds per neurite.

T1 sequence (P61586 1-190 limits assumed): as above

In the case of “C4RIP-V5: CRMP4b-RhoA Inhibitory Peptide: first 126 residues of the unique amino terminal domain of CRMP4b (SEQ ID NO: 2), fused to a V5-epitope tag”, the “effect on RhoA binding to CRMP4a” value (CRMP4a-RhoA binding) is reported as “without affecting binding to CRMP4a”, the “Sema3A-dependent growth cone collapse” value (E8 chick DRG neurons) is reported as “no effect on Sema3A-dependent growth cone collapse” and the “neurite outgrowth on myelin substrate (myelin-dependent outgrowth inhibition)” value [1] is reported as “significantly attenuates myelin-dependent outgrowth inhibition”. The “effect on binding between FLAG-RhoA63L and myc-ROCK” value [2] was “does not diminish binding between FLAG-RhoA63L and myc-ROCK”, the “effect on RhoA binding to full length CRMP4b” value (CRMP4b-RhoA binding) was “significantly diminishes RhoA binding to full length CRMP4b” and the “basal neurite outgrowth on permissive control (laminin) substrate” value [3] was “does not promote basal DRG outgrowth on permissive control substrates”. For the same substance, the “neurite outgrowth on aggrecan” value [4] was “promotes neurite outgrowth on aggrecan”.
In the case of “CRMP4b-V5: full length rat CRMP4b (SEQ ID NO: 1) with V5-His tag, overexpressed via HSV or plasmid”, the “effect on binding between FLAG-RhoA63L and myc-ROCK” value [2] is reported as “does not affect the binding between FLAG-RhoA63L and myc-ROCK”, the “basal neurite outgrowth on permissive control (laminin) substrate” value [3] is reported as “not sufficient to mimic myelin inhibitory responses” and the branches per neurite (E13 chick DRG neurons; average (GFP-infected: 2), FIG. 5g) is reported as 8 branches per neurite. For the same substance, the “filopodia length increase versus GFP-infected growth cones” value (E13 chick DRG neurons; average, FIG. 5e, f, g) was 70%.

From US7935349B2, “CRMP4b inhibitory peptide” (The Royal Institution for the Advancement of …, priority 2006, dated 2011)
